Laboratory results as given in patent publication US20170073337A1, “DIHYDROTHIAZINE AND DIHYDROOXAZINE DERIVATIVES HAVING BACE1 INHIBITORY ACTIVITY” (Shionogi & Co., Ltd., priority 2014, published 2017).
Converted amounts (≈) assume the structure as drawn. Like-named read-outs stand apart in the source and are kept apart here.

What was measured:
CYP1A2 = molecular target: T1, CYP1A2 (Homo sapiens, UniProt P05177); assay: CYP inhibition test (CYP1A2); format: in vitro ADME; details: pooled human liver microsomes; 7-ethoxyresorufin O-deethylation
T1 construct: The commercially available pooled human liver microsomes are used as an enzyme resource; from tissue; host or cells: pooled human liver microsomes
T1 sequence (P05177 1-516): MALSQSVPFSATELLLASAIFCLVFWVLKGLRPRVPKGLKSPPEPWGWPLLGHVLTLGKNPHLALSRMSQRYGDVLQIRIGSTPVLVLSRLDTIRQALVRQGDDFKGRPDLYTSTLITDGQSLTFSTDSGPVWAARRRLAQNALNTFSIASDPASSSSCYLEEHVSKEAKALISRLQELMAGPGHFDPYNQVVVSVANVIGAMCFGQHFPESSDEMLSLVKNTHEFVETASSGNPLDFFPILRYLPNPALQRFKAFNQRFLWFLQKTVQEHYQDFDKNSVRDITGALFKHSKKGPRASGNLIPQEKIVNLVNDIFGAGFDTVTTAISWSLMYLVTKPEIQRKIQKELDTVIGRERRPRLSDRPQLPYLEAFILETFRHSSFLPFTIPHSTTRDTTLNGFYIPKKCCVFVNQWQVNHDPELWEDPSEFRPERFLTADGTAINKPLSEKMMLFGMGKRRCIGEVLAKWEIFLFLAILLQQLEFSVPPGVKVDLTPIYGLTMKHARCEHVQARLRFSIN
Outline: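 Inhibition of CYP1A2 was measured in commercially available pooled human liver microsomes (0.2 mg protein/mL) using 7-ethoxyresorufin O-deethylation with 0.5 μmol/L ethoxyresorufin. Test compound at 1, 5, 10, 20 μmol/L in […] Hepes buffer was incubated at 37° C. after NADPH addition; methanol/acetonitrile=1/1 (v/v) stopped the reaction, and resorufin was read fluorescently.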

CYP2C19 = molecular target: T2, CYP2C19 (Homo sapiens, UniProt P33261); assay: CYP inhibition test (CYP2C19); format: in vitro ADME; details: pooled human liver microsomes; mephenytoin 4′-hydroxylation
T2 construct: The commercially available pooled human liver microsomes are used as an enzyme resource; from tissue; host or cells: pooled human liver microsomes
T2 sequence (P33261 whole entry): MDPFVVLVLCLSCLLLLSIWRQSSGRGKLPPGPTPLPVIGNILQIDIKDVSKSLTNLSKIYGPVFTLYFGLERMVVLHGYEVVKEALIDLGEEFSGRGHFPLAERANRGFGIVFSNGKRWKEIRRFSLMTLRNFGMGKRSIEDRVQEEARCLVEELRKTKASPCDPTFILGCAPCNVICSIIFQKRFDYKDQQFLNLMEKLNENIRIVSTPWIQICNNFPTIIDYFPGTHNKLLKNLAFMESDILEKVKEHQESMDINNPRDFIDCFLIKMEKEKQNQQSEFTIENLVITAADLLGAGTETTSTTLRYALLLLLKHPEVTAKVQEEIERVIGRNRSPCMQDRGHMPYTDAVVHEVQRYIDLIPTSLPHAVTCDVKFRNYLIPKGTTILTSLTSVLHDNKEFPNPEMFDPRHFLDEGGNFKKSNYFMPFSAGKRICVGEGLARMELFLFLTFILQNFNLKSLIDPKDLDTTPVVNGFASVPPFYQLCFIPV
Outline: (§1)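 Metabolite formation was quantified by LC/MS/MS: dextrorphan (2D6, 5 μmol/L dextromethorphan), terfenadine alcohol (3A4, 1 μmol/L terfenadine), 4′-hydroxymephenytoin (2C19, 50 μmol/L S-mephenytoin) and hydroxytolbutamide (2C9, 100 μmol/L tolbutamide). Reactions used NADPH-started pooled human liver microsomes (0.2 mg/mL) at 37 °C with compound at 1–20 μmol/L (four points). IC50 was calculated by logistic model relative to the DMSO control.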

CYP3A4 = molecular target: T3, CYP3A4 (Homo sapiens, UniProt P08684); assay: CYP inhibition test (CYP3A4); format: in vitro ADME; details: pooled human liver microsomes; terfenadine hydroxylation
T3 construct: The commercially available pooled human liver microsomes are used as an enzyme resource; from tissue; host or cells: pooled human liver microsomes
T3 sequence (P08684 whole entry): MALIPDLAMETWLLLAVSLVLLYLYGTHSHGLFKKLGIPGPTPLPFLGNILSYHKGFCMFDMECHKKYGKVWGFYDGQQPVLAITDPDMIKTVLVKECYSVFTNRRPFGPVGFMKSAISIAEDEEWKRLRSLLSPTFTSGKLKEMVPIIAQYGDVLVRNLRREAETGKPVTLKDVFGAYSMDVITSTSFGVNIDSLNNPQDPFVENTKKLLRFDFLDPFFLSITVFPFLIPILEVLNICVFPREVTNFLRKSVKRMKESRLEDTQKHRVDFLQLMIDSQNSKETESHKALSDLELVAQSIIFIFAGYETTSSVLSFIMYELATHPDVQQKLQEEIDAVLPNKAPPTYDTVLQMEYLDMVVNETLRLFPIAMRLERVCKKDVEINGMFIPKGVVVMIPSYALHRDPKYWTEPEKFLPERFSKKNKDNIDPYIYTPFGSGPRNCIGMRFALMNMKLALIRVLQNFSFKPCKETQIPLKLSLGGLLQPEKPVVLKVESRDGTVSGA
Outline: as §1

Solubility test = format: physicochemical
Outline: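 Dissolved concentration determined by LC/MS or SPE/MS (absolute calibration) in diluted filtrates, after 2 μL of 10 mmol/L DMSO stock was added to 198 μL JP 1st or JP 2nd fluid and equilibrated either 1 h with shaking at room temperature or 16 h standing at 25 °C.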

Metabolic stability test = format: in vitro ADME; details: human liver microsomes, 37° C., 30 minutes, NADPH
Outline: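 Parent compound was measured by LC/MS/MS or SPE/MS after a methanol/acetonitrile quench and reported as % remaining, with the 0 min sample set to 100%. Incubations ran 30 min at 37 °C in pH 7.4 Tris buffer containing pooled human liver microsomes at 0.5 mg protein/mL and 1 mmol/L NADPH.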

[1] = molecular target: T4, human ether-a-go-go related gene (hERG) channel (Homo sapiens, UniProt Q12809); assay: hERG test; format: cell-based; details: % inhibition of IKr tail peak current at 3 uM; CHO cells expressing hERG
T4 construct: expressed in transfected cells; host or cells: CHO cells
T4 sequence (Q12809 whole entry): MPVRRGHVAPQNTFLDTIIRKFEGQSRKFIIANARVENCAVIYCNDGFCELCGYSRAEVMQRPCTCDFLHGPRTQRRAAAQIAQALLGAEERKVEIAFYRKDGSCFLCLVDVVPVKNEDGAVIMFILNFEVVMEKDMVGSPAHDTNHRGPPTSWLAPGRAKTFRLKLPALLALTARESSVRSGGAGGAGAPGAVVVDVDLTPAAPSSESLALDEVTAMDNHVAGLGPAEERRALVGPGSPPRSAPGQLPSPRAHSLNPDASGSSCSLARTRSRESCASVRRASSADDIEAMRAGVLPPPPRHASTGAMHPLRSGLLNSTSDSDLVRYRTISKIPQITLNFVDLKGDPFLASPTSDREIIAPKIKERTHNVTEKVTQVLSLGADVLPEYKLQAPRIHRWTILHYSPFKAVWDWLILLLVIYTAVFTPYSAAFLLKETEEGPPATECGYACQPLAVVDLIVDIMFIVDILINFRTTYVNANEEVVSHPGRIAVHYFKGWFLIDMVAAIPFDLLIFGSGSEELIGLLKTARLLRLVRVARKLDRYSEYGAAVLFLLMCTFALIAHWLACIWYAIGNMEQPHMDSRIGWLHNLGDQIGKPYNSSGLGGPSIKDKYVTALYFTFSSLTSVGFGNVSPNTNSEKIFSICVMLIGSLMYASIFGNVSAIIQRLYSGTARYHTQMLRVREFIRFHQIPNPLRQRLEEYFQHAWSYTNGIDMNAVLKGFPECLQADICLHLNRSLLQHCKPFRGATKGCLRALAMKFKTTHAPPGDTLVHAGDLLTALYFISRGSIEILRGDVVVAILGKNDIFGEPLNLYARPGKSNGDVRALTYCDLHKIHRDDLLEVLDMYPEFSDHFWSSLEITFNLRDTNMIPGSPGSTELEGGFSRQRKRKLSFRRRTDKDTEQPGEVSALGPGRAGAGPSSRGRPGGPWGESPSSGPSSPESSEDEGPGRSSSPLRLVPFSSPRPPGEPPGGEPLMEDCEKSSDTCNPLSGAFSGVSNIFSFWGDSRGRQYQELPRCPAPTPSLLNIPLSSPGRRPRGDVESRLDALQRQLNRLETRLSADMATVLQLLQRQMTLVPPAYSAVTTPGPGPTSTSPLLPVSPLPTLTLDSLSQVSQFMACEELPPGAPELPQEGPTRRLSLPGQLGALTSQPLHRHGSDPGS
Outline: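 Automated whole-cell patch clamp was run on CHO cells carrying human hERG, held at −80 mV. Current was recorded during the −50 mV repolarization (2 s) that followed a 2 s +20 mV step, after a −50 mV leak pulse.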

[2] = JP 1st fluid, 25 °C, pH 1.2, simulated gastric fluid, kinetic from dmso stock, read-out: JP1
[3] = JP 2nd fluid A, 25 °C, pH 6.8, aqueous buffer, kinetic from dmso stock, read-out: JP2_μM
[4] = JP 1st fluid, pH 1.2, simulated gastric fluid, kinetic from dmso stock, read-out: JP1
[5] = JP 2nd fluid A, pH 6.8, aqueous buffer, kinetic from dmso stock, read-out: JP2_μM
[6] = solubility in JP 2nd fluid B, 1% DMSO, *2: shaken for 1 hour at room temperature, read-out: JP2_μM
[7] = JP 2nd fluid B, pH 6.8, aqueous buffer, kinetic from dmso stock, read-out: JP2_μM

Compound | IC50 (CYP1A2) [µM] | IC50 (CYP2C19) [µM] | IC50 (CYP3A4) [µM] | solubility kinetic at 16 h (Solubility test; [2]) [µM] | solubility kinetic at 16 h (Solubility test; [3]) [µM] | remaining % (Metabolic stability test) [%] | solubility kinetic at 1 h (Solubility test; [4]) [µM] | solubility kinetic at 1 h (Solubility test; [5]) [µM] | solubility kinetic at 16 h (Solubility test; [6]) [µM] | solubility kinetic at 1 h (Solubility test; [7]) [µM] | hERG_3 uM_% [1] [%]
C[C@H]1SC(N)=N[C@](C)(c2nc(NC(=O)c3ccc(C#N)cn3)ccc2F)[C@H]1F [Compound I-1] | ≥ 20 | ≥ 20 | ≥ 20 | > 50 | > 50 | 82.4 | – | – | – | – | –
C[C@]1(c2nc(NC(=O)c3ccc(C#N)cn3)ccc2F)N=C(N)S[C@H](CF)[C@@H]1F [Compound I-4] | ≥ 20 | ≥ 20 | ≥ 20 | 35.8 (≈ 15.1 µg/mL) | > 50 | – | – | – | – | – | 47.9
C[C@@]1(c2cc(NC(=O)c3ccc(C#N)cn3)ccc2F)C[C@@](C)(C(F)(F)F)OC(N)=N1 [Compound I-7] | – | – | – | > 50 | > 50 | 82 | – | – | – | – | 47.4
COc1cnc(C(=O)Nc2ccc(F)c([C@@]3(C)N=C(N)S[C@H](C)[C@@H]3F)c2)cn1 [Compound I-8] | ≥ 20 | ≥ 20 | ≥ 20 | 46.4 (≈ 18.9 µg/mL) | > 50 | – | – | – | – | – | 16.7
C[C@]1(c2cc(NC(=O)c3ccc(C#N)cn3)ccc2F)N=C(N)O[C@H](CF)[C@@H]1OCC(F)(F)F [Compound I-10] | ≥ 20 | ≥ 20 | ≥ 20 | 40 (≈ 19.3 µg/mL) | > 50 | 95.6 | – | – | – | – | –
COc1cnc(C(=O)Nc2ccc(F)c([C@@]3(C)N=C(N)O[C@H]([C@H](C)F)[C@@H]3F)c2)cn1 [Compound I-17] | ≥ 20 | ≥ 20 | ≥ 20 | – | – | – | 33.9 (≈ 14.4 µg/mL) | > 50 | – | – | 19.5
C[C@H]1[C@@H](C(F)(F)F)OC(N)=N[C@]1(C)c1cc(NC(=O)c2ccc(C#N)cn2)ccc1F [Compound I-28] | ≥ 20 | ≥ 20 | ≥ 20 | 40.4 (≈ 17.6 µg/mL) | > 50 | – | – | – | – | – | 36.2
C[C@H]1[C@@H](C(F)(F)F)OC(N)=N[C@]1(C)c1cc(NC(=O)c2cnc(OCF)cn2)ccc1F [Compound I-30] | ≥ 20 | ≥ 20 | ≥ 20 | 39.2 (≈ 18 µg/mL) | > 50 | – | – | – | – | – | 15.1
C[C@]1(c2cc(NC(=O)c3ccc(C#N)cn3)ccc2F)N=C(N)O[C@H]2[C@@H]1OCC2(F)F [Compound I-35] | ≥ 20 | ≥ 20 | ≥ 20 | > 50 | > 50 | – | – | – | – | – | 41.1
C[C@H]1[C@@H](C(F)(F)F)OC(N)=N[C@]1(C)c1cc(NC(=O)c2cnc(OCF)cn2)ccc1F [Compound I-41] | – | – | – | – | – | 105 | > 50 | > 50 | – | – | 24.8
C[C@H]1SC(N)=N[C@](C)(c2cc(NC(=O)c3cnc(OCC(F)(F)F)cn3)ccc2F)[C@H]1F [Compound I-46] | ≥ 20 | ≥ 20 | – | – | – | 97.8 | > 50 | 8.3 (≈ 3.95 µg/mL) | – | – | 33.4
C[C@H]1SC(N)=N[C@](C)(c2cc(NC(=O)c3cnc(OCC(F)F)cn3)ccc2F)[C@H]1F [Compound I-48] | ≥ 20 | ≥ 20 | ≥ 20 | – | – | 92.9 | > 50 | 39.5 (≈ 18.1 µg/mL) | – | – | –

Second part, led by results:

IC50 (CYP1A2) [µM] | IC50 (CYP2C19) [µM] | IC50 (CYP3A4) [µM] | solubility kinetic at 16 h (Solubility test; [2]) [µM] | solubility kinetic at 16 h (Solubility test; [3]) [µM] | remaining % (Metabolic stability test) [%] | solubility kinetic at 1 h (Solubility test; [4]) [µM] | solubility kinetic at 1 h (Solubility test; [5]) [µM] | solubility kinetic at 16 h (Solubility test; [6]) [µM] | solubility kinetic at 1 h (Solubility test; [7]) [µM] | Compound | hERG_3 uM_% [1] [%]
≥ 20 | ≥ 20 | ≥ 20 | – | – | – | > 50 | – | >50 | – | COc1ccc(C(=O)Nc2ccc(F)c([C@@]3(C)N=C(N)S[C@H](C)[C@@H]3F)c2)nc1 [Compound I-50] | 34.3
≥ 20 | ≥ 20 | ≥ 10 | – | – | – | > 50 | – | >50 | – | COc1cnc(C(=O)Nc2ccc(F)c([C@@]3(C)N=C(N)SCC34CC(F)(F)C4)c2)cn1 [Compound I-55] | 39.5
≥ 20 | ≥ 20 | – | – | – | 66.8 | > 50 | – | >50 | – | C[C@]1(c2cc(NC(=O)c3ccc(C#N)cn3)ccc2F)N=C(N)SCC12CC(F)(F)C2 [Compound I-59] | –
≥ 20 | ≥ 20 | – | – | – | – | > 50 | – | >50 | – | C[C@H]1SC(N)=N[C@](C)(c2cc(NC(=O)c3cnc(OCF)cn3)ccc2F)C12CC(F)(F)C2 [Compound I-62] | 29.6
≥ 20 | ≥ 20 | – | – | – | 75.8 | > 50 | – | >50 | – | C[C@H]1SC(N)=N[C@](C)(c2cc(NC(=O)c3ccc(F)cn3)ccc2F)C12CC(F)(F)C2 [Compound I-63] | 53.2
≥ 20 | ≥ 10 | – | – | – | – | > 50 | – | – | 8.2 (≈ 3.93 µg/mL) | CC#CCOc1cnc(C(=O)Nc2ccc(F)c([C@@]3(C)N=C(N)O[C@H](C(C)(F)F)[C@@H]3F)c2)cn1 [Compound I-76] | 5.8
≥ 20 | ≥ 20 | ≥ 10 | – | – | – | > 50 | – | >50 | – | COCC(F)(F)[C@H]1OC(N)=N[C@](C)(c2cc(NC(=O)c3cnc(OCF)cn3)ccc2F)[C@H]1F [Compound I-79] | 7.8
≥ 20 | ≥ 20 | ≥ 20 | – | – | 101 | 45.8 (≈ 19.7 µg/mL) | – | – | > 50 | C[C@]1(c2cc(NC(=O)c3ccc(C#N)cn3)ccc2F)N=C(N)O[C@H](C2(F)CC2)[C@@H]1F [Compound I-96] | –
≥ 20 | ≥ 20 | ≥ 20 | – | – | 91.8 | > 50 | – | >50.0 | – | C[C@]1(c2cc(NC(=O)c3ccc(OCF)cn3)ccc2F)N=C(N)O[C@H](C2(F)CC2)[C@@H]1F [Compound I-101] | –
≥ 20 | ≥ 20 | ≥ 20 | – | – | 78.3 | 49.4 (≈ 19.2 µg/mL) | – | – | > 50 | COc1cnc(C(=O)Nc2cccc([C@@]3(C)N=C(N)S[C@H](C)[C@@H]3F)c2)cn1 [Compound I-103] | –
≥ 20 | ≥ 20 | ≥ 20 | – | – | 77.7 | 40.6 (≈ 16.5 µg/mL) | – | – | > 50 | C[C@H]1SC(N)=N[C@](C)(c2cccc(NC(=O)c3cnc(OCF)cn3)c2)[C@H]1F [Compound I-104] | –
≥ 20 | ≥ 20 | ≥ 20 | – | – | 84.1 | 42 (≈ 17.2 µg/mL) | – | – | > 50 | C[C@H]1SC(N)=N[C@](C)(c2cccc(NC(=O)c3cnc(C(F)F)cn3)c2)[C@H]1F [Compound I-106] | –
